Literature values in US20100136119A1, “CONTROLLED-RELEASE PREPARATION CONTAINING CILOSTAZOL AND PROCESS FOR THE PREPARATION THEREOF” (AMOREPACIFIC CORPORATION, priority 2007, published 2010).

In the case of `O=C1CCc2cc(OCCCCc3nnnn3C3CCCCC3)ccc2N1` [Cilostazol], the solubility in water is listed as ≤ 1 µg/mL.
